Results on 1 molecule are retold here after patent US20130261045A1, “GREEN TEA POLYPHENOL ALPHA SECRETASE ENHANCERS AND METHODS OF USE” (UNIVERSITY OF SOUTH FLORIDA, priority 2005, published 2013).

For the test, the system named is transgenic APPsw mice. As to the kind of experiment: EGCG IP treatment of transgenic APPsw mice (brain Aβ, APP fragments, secretase activity, plaques). It is filed as in vivo, mouse. Here is the method:
Soluble Aβ (FIG. 4B) and insoluble Aβ prepared with 5 M guanidine (FIG. 4C) were analyzed by ELISA. Data are represented as mean+/−SEM of Aβ (pg/mg protein). […] (FIG. 4D) α-, β- and γ-secretase cleavage activities were analyzed by secretase cleavage activity kits. Data are presented as mean+/−SEM of fluorescence units/mg protein. […] (FIG. 4E) Mouse brain paraffin sections stained with anti-human Aβ antibody (4G8); left control PBS-treated mice. […] Top, cingulated cortex (CC); Middle, hippocampus (H); Bottom, entorhinal cortex (EC). […] (FIG. 4F) illustrates bar graphs comparing the Aβ burden (%) for transgenic APPsw mice treated with two different compounds.
Cultured cells were lysed in ice-cold-lysis buffer (20 mM Tris, pH 7.5, 150 mM NaCl, 1 mM EDTA, 1 mM EGTA, 1% v/v Triton X-100, 2.5 mM sodium pyropgosphate, 1 mM β-glycerolphosphate, 1 mM Na3VO4, 1 μg/mL leupeptin, 1 mM PMSF) as previously described (Tan et al., 2002). Mouse brains were isolated under sterile conditions on ice and placed in ice-cold lysis buffer. Brains were then sonicated on ice for approximately 3 min, allowed to stand for 15 min at 4° C., and centrifuged at 15,000 rpm for 15 min. Total Aβ1-42 species were detected by acid extraction of brain homogenates in 5 M guanidine buffer (ret), followed by a 1:10 dilution in lysis buffer. Soluble Aβ1-42 was directly detected in cultured cell lysates or brain homogenates prepared with lysis buffer described above by a 1:4 or 1:10 dilution, respectively. Aβ1-42 was quantified in these samples using the Aβ1-42 ELISA kit (BioSource, Camarillo, Calif.) in accordance with the manufacturer's instructions, except that standards included a 0.5 M guanidine buffer.
Cultured cells and mouse brain were lysed in ice-cold lysis buffer described above, and an aliquot corresponding to 50 μg of total protein was electrophoretically separated using 16.5% Tris-tricine gels. Electrophoresed proteins were then transferred to PVDF membranes (Bio-Rad), washed in dH2O, and blocked for 1 hour at ambient temperature in Tris-buffered saline (TBS; Bio-Rad) containing 5% (w/v) for non-fat dry milk. After blocking, membranes were hybridized for 1 hour at ambient temperature with various antibodies, including against the C- (369), N-terminus of APP (22C11), the N-terminus of Aβ (6E10), and ADAM10 and TACE (Calbiochem). Membranes were then washed 3× for 5 min each in dH2O and incubated for 1 hour at ambient temperature with the appropriate HRP-conjugated secondary antibody (1:1,000, Pierce Biotechnology, Inc. Rockford, Ill.). All antibodies were diluted in TBS containing 5% (w/v) of non-fat dry milk. Blots were developed using the luminal reagent (Pierce Biotechnology). Densitometric analysis was done using the Fluor-S Multimager™ with Quantity One™ software (Bio-Rad). Immunoprecipitation was performed for detection of sAPP-α, sAPP-β and Aβ by incubating 200 μg of total protein of each sample with 6E10 (1:100; Signet) or 22C11 (1:100; Roche, Basel, Switzerland) overnight with gentle rocking at 4° C., and 10 μL of 50% protein A-Sepharose beads were then added to the sample (1:10; Sigma) prior to gentle rocking for an additional 4 hours at 4° C. Following washes with 1× cell lysis buffer, samples were subjected to Western blot as described above. Antibodies used for Western blot included antibody 369 (1:1,000), anti-C-terminal APP antibody (1:500; Chemicon, Temecula, Calif.), BAM-10 (1:1,000; Sigma), 6E10 (1:1,000; Signet) or anti-Actin antibody (1:1,500; as an internal reference control; Roche). α-, β- and γ-secretase activities were quantified in cell lysates and mouse brain homogenates using available kits based on secretase-specific peptides conjugated to fluorogenic receptor molecules (R&D Systems, Minneapolis, Minn.).

Where [1] appears, read: IP 20 mg/kg daily for 60 days, ELISA.

Consider `O=C(O[C@@H]1Cc2c(O)cc(O)cc2O[C@@H]1c1cc(O)c(O)c(O)c1)c1cc(O)c(O)c(O)c1` [EGCG, (−)-epigallocatechin-3-gallate], for which, where the note is “IP 20 mg/kg daily for 60 days”, the “elevation of α-secretase cleavage activity in brain” value came out at 28%, the “sAPP-α in brain versus PBS” value is reported as “markedly increased” and the “α-CTF in brain versus PBS” value was “markedly increased”. Also, under setting [1], the “reduction of soluble Aβ1-42 level in brain” value is recorded as ~50% and the “reduction of total Aβ1-42 level in brain” value was ~25%. For the same molecule, the “reduction of 4G8 immunoreactive and thioflavin S positive Aβ deposits” value (IP, 14 months of age, across the three brain regions examined) was 32-36%. Moreover, under “IP, ELISA, FIG. 4C”, the “decrease of insoluble 5 M guanidine-prepared Aβ levels” value is recorded as “approximately 26%”. For the same molecule, the “activity of β-secretase cleavage in brain” value (in vivo, FIG. 4d) is listed as “not decreases”.
